pEC50, pIC50: −log10 of the molar value. Read-outs that look alike come from different tables or passages of the source.
Experiments:
[1] = target: recombinant SARS-CoV-2 Main protease (Mpro) (Severe acute respiratory syndrome coronavirus 2 (2019-nCoV) (SARS-CoV-2), UniProt P0DTD1); assay: Cov Mpro Biochemical IC50 Assay; details: fluorogenic peptide substrate 40 μM
SARS-CoV-2-NLuc = assay: microbe, parasite or virus in culture; assay type: cell-based, SARS Coronavirus 2
[2] = recombinant SARS-CoV-2 Mpro 7.5 nM, read-out: MPro IC50
[3] = Severe acute respiratory syndrome coronavirus, 48 h, read-out: MPro EC50
[4] = Severe acute respiratory syndrome coronavirus, 48 h; read-out: MPro EC50
[5] = MPro IC50, recombinant SARS-CoV-2 Mpro 7.5 nM

Compound | pIC50 [1, 2] | pEC50 (SARS-CoV-2-NLuc; [3]) | pEC50 (SARS-CoV-2-NLuc; [4]) | pIC50 [1, 5]
COc1cc(-c2cc3c(s2)c(=O)n(-c2cncc4ccccc24)c(=O)n3CC2(C#N)CCC2)c(Cl)cc1F [Example 690] | 7.33 | 7.01 | – | –
COc1cc(-c2cc3c(s2)c(=O)n(-c2cncc4cnn(C5CC5)c24)c(=O)n3CC#N)c(Cl)cc1F [Example 691] | 8.51 | 8.54 | – | –
COc1cc(-c2cc3c(s2)c(=O)n(-c2cncc4nnn(C5CC5)c24)c(=O)n3CC2(C#N)CC2)c(Cl)cc1F [Example 692] | 8.36 | 8.61 | – | –
COc1cc(-c2cc3c(s2)c(=O)n(-c2cncc4cnn(C)c24)c(=O)n3CC#N)c(C#N)cc1F [Example 693] | 8.59 | 7.03 | – | –
COc1cc(-c2cc3c(s2)c(=O)n(-c2cncc4ccccc24)c(=O)n3[C@H]2C[C@@H](C#N)C2)c(Cl)cc1F [Example 694] | 7.72 | 7.21 | – | –
COc1cc(-c2cc3c(s2)c(=O)n(-c2cncc4ccccc24)c(=O)n3[C@H]2C[C@H](C#N)C2)c(Cl)cc1F [Example 695] | 7.79 | 7.34 | – | –
COc1cc(-c2cc3c(s2)c(=O)n(-c2cncc4ccn(C)c(=O)c24)c(=O)n3CC#N)c(Cl)cc1F [Example 696] | 8.50 | 7.53 | – | –
COc1cc(-c2cc3c(s2)c(=O)n(-c2cncc4cnn(C)c24)c(=O)n3CC(C)(C)C#N)c(Cl)cc1F [Example 697] | 8.05 | 8.02 | – | –
COc1cc(-c2cc3c(s2)c(=O)n(-c2cncc4ccccc24)c(=O)n3CC(C)(C)C#N)c(Cl)cc1F [Example 698] | 8.15 | 7.85 | – | –
COc1cc(-c2cc3[nH]c(=O)n(-c4cncc5c(CO)nn(C)c45)c(=O)c3s2)c(Cl)cc1F [Example 699] | 7.97 | 6.33 | – | –
Cn1ncc2cncc(-n3c(=O)[nH]c4cc(-c5cc(F)ccc5C#N)sc4c3=O)c21 [Example 700] | 7.26 | – | 6.33 | –
COc1cc(-c2cc3c(s2)c(=O)n(-c2cncc4cccc(F)c24)c(=O)n3CC#N)c(Cl)cc1F [Example 703] | 8.45 | 8.43 | – | –
COc1cc(-c2nc3[nH]c(=O)n(-c4cncc5ccccc45)c(=O)c3s2)c(Cl)cc1F [Example 704] | – | – | 6.61 | 7.46
COc1cc(-c2nc3c(s2)c(=O)n(-c2cncc4ccccc24)c(=O)n3CC#N)c(Cl)cc1F [Example 705] | 8.32 | 8.09 | – | –
COc1cc(-c2cc3[nH]c(=O)n(-c4cncc5c4c(C)cn5C)c(=O)c3s2)c(Cl)cc1F [Example 706] | 8.23 | 8.19 | – | –
COc1cc(-c2cc3c(s2)c(=O)n(-c2cncc4nc(C)n(C)c24)c(=O)n3CC2(C#N)CC2)c(Cl)cc1F [Example 707] | 8.67 | 8.05 | – | –
COc1cc(-c2cc3c(s2)c(=O)n(-c2cncc4cccnc24)c(=O)n3CC#N)c(Cl)cc1F [Example 708] | 8.36 | 8.06 | – | –
COc1cc(-c2cc3c(s2)c(=O)n(-c2cncc4cccnc24)c(=O)n3CC2(C#N)CC2)c(Cl)cc1F [Example 709] | 8.21 | 8.68 | – | –
N#CCn1c(=O)n(-c2cncc3cccnc23)c(=O)c2sc(-c3ccccc3Cl)cc21 [Example 710] | > 8.36 | 7.65 | – | –
N#CC1(Cn2c(=O)n(-c3cncc4cccnc34)c(=O)c3sc(-c4ccccc4Cl)cc32)CC1 [Example 711] | 8.36 | 8.77 | – | –
COc1cc(-c2cc3[nH]c(=O)n(-c4cncc5ccc(=O)n(C)c45)c(=O)c3s2)c(Cl)cc1F [Example 712] | 8.16 | 7.91 | – | –
COc1cc(-c2cc3[nH]c(=O)n(-c4cnccc4C)c(=O)c3s2)c(Cl)cc1F [Example 713] | – | – | 7.82 | 8.04
COc1cc(-c2cc3[nH]c(=O)n(-c4cnnc(C)c4)c(=O)c3s2)c(Cl)cc1F [Example 714] | < 6.00 | < 6.00 | – | –
COc1cc(-c2cc3[nH]c(=O)n(-c4cncc(Cl)c4)c(=O)c3s2)c(Cl)cc1F [Example 715] | 8.33 | – | 8.00 | –
COc1cc(-c2cc3[nH]c(=O)n(-c4cncc5ccccc45)c(=O)c3s2)c(C)cc1Cl [Example 716] | 7.80 | 7.73 | – | –

Compound | pIC50 [1, 2] | pEC50 (SARS-CoV-2-NLuc; [3]) | pEC50 (SARS-CoV-2-NLuc; [4]) | pIC50 [1, 5]
COc1cc(-c2cc3[nH]c(=O)n(-c4cncc5ccccc45)c(=O)c3s2)c(C)cc1C [Example 717] | 7.62 | 7.60 | – | –
COc1cnc(C)c(-c2cc3[nH]c(=O)n(-c4cncc5ccccc45)c(=O)c3s2)c1 [Example 718] | 6.98 | 6.43 | – | –
COc1cc(-c2cc3[nH]c(=O)n(-c4cncc5ccccc45)c(=O)c3s2)c(C)cn1 [Example 719] | 6.44 | 6.03 | – | –
Cc1cc(F)cc(Cl)c1-c1cc2[nH]c(=O)n(-c3cncc4ccccc34)c(=O)c2s1 [Example 720] | 6.96 | 7.00 | – | –
Cc1cc(Cl)cc(Cl)c1-c1cc2[nH]c(=O)n(-c3cncc4ccccc34)c(=O)c2s1 [Example 721] | 6.15 | 6.32 | – | –
COc1ccc(-c2cc3[nH]c(=O)n(-c4cncc5ccccc45)c(=O)c3s2)c(Cl)c1 [Example 722] | 7.47 | 7.16 | – | –
COc1cc(Cl)c(-c2cc3[nH]c(=O)n(-c4cncc5ccccc45)c(=O)c3s2)cc1C [Example 723] | 7.67 | 7.77 | – | –
COc1cc(Cl)c(-c2cc3[nH]c(=O)n(-c4cncc5ccccc45)c(=O)c3s2)cc1Cl [Example 724] | 8.03 | 7.77 | – | –
COc1cc(Cl)c(-c2cc3[nH]c(=O)n(-c4cncc5ccccc45)c(=O)c3s2)cc1F [Example 725] | 8.07 | 7.71 | – | –
O=c1[nH]c2cc(-c3cc(Cl)c(F)cc3Cl)sc2c(=O)n1-c1cncc2ccccc12 [Example 726] | 7.64 | 7.41 | – | –
N#CCn1c(=O)n(-c2cncc3ccccc23)c(=O)c2sc(-c3ccc(F)cc3Cl)cc21 [Example 727] | 8.51 | 8.08 | – | –
N#CCn1c(=O)n(-c2cncc3ccccc23)c(=O)c2sc(-c3cc(F)ccc3Cl)cc21 [Example 728] | 8.57 | 8.36 | – | –
COc1cc(-c2cc3[nH]c(=O)n(-c4cncc5c4CCCC5)c(=O)c3s2)c(Cl)cc1F [Example 729] | 8.21 | – | 8.11 | –
COc1cc(-c2cc3[nH]c(=O)n(-c4cncc5cnn(CC(F)F)c45)c(=O)c3s2)c(Cl)cc1F [Example 730] | 8.00 | 7.54 | – | –
COc1cc(-c2cc3[nH]c(=O)n(-c4cncc5nn(C)cc45)c(=O)c3s2)c(Cl)cc1F [Example 731] | 8.30 | 7.18 | – | –
CCn1ncc2cncc(-n3c(=O)[nH]c4cc(-c5cc(OC)c(F)cc5Cl)sc4c3=O)c21 [Example 732] | 7.82 | 7.80 | – | –
COCCn1ncc2cncc(-n3c(=O)[nH]c4cc(-c5cc(OC)c(F)cc5Cl)sc4c3=O)c21 [Example 733] | 7.82 | 7.59 | – | –
CCn1cc2cncc(-n3c(=O)[nH]c4cc(-c5cc(OC)c(F)cc5Cl)sc4c3=O)c2n1 [Example 734] | 8.29 | 7.36 | – | –
COCCn1cc2cncc(-n3c(=O)[nH]c4cc(-c5cc(OC)c(F)cc5Cl)sc4c3=O)c2n1 [Example 735] | 8.18 | 7.15 | – | –
COc1cc(-c2cc3[nH]c(=O)n(-c4cncc5ncccc45)c(=O)c3s2)c(Cl)cc1F [Example 737] | 7.75 | 7.13 | – | –
COc1cc(-c2cc3[nH]c(=O)n(-c4c(C)ccnc4F)c(=O)c3s2)c(Cl)cc1F [Example 738] | 7.87 | – | 7.58 | –
COc1cc(-c2cc3[nH]c(=O)n(-c4cncc5ccncc45)c(=O)c3s2)c(Cl)cc1F [Example 739] | 8.02 | – | 7.76 | –
COc1cc(-c2cc3[nH]c(=O)n(-c4cncc5nn(CC(F)(F)F)c(C)c45)c(=O)c3s2)c(Cl)cc1F [Example 740] | 7.32 | 6.99 | – | –
COc1cc(-c2cc3[nH]c(=O)n(-c4cncc5c4c(C)nn5CC(F)(F)F)c(=O)c3s2)c(Cl)cc1F [Example 741] | < 6.00 | < 6.00 | – | –
COc1cc(-c2cc3[nH]c(=O)n(-c4cncc(Cl)c4Cl)c(=O)c3s2)c(Cl)cc1F [Example 742] | 7.82 | 7.58 | – | –

Source: patent US20240116946A1 (Gilead Sciences, Inc., priority 2022, published 2024)
